Laboratory results published in PMC2919388, “A Screening Pipeline for Antiparasitic Agents Targeting Cryptosporidium Inosine Monophosphate Dehydrogenase” (PLoS Neglected Tropical Diseases, 2010).
Read-outs that look alike come from different tables or passages of the source.

How the values were obtained:
T. gondii-ΔHXGPRT = test: Fluorescent T. gondii growth assay, ΔHXGPRT strain; assay type: cell-based; conditions: Toxoplasma gondii, read-out: T. gondii model EC50 ΔHXGPRT, T. gondii-ΔHXGPRT
Description: (§1) Wild-type T. gondii and T. gondii-ΔHXGPRT parasites were transfected with plasmid ptubYFPYFsagCAT [37] which drives constitutive cytoplasmic expression of two copies of the yellow fluorescent protein. Similarly, plasmid pCTR2T [38] was transfected into T. gondii-CpIMPDH resulting in constitutive cytoplasmic expression of a tandem of the tomato variant of the red fluorescent protein [39]. Fluorescent parasites were selected and cloned by cell sorting using a MoFlo Legacy instrument (Beckman Coulter, Inc). Growth of fluorescent clones was monitored in 96 well plates as previously described. Briefly, fluorescence was read daily with a SpectraMax M22/M2e (Molecular Devices) plate reader (Ex 485, Em 530) for 6–7 days. For each of the three fluorescent T. gondii clones percent growth inhibition was calculated on a day within the exponential phase of growth for the purpose of determining an IC50 for each compound.
(§2) Supplementary file pntd.0000794.s002.tif: Figure S2 Obtaining an EC50 value for T. gondii growth. Fluorescent T. gondii parasites are seeded into 96-well plates and spiked with test compound. Fluorescence is measured daily with a SpectraMax M22/M2e (Molecular Devices) plate reader for 6–7 days. The fluorescence readings on a day during the exponential phase of the growth curve, for example day 4 in A, are used to calculated percent growth inhibition. These values are fitted using the 4 parameter model y = D+(A–D)/(1+(x/C)^B) where D is the minimum value, A is the maximum value, C is the EC50 and B is the Hill coefficient, using the SoftMax Pro v5 software, as illustrated in B. The absolute EC50 is recorded at the x intercept where y = 50. (0.33 MB TIF) Click here for additional data file.

HCT-8 cells = test: Fluorescent HCT-8 host cell growth assay; assay type: cell-based, human; conditions: for activity at 25 µM: Homo sapiens, HCT-8, compound at 25 μM, relative to DMSO alone
Procedure: HCT-8 cells were transfected with plasmid pmaxGFP (Amaxa) using Lipofectamine (Invitrogen). Fluorescent lines were then selected and cloned using cell sorting. Confluent monolayers of pmaxGFP expressing cells were harvested from T75 flasks and passed through a 40 µm cell strainer. Cells were seeded at 4000 cells per well into black, optical quality, thin bottom, 96-well plates. All test compounds were diluted in DMSO as described. The fluorescence was read daily with a SpectraMax M22/M2e (Molecular Devices) plate reader (Ex 485, Em 530) for 6–7 days. Percent inhibition was calculated on a day within the exponential phase of growth.

C. parvum [1] = test: High-content imaging C. parvum growth assay (FITC-VVL); assay type: cell-based, Cryptosporidium parvum; conditions: for EC50: Cryptosporidium parvum, HCT-8, 48 h, growth in HCT-8 cells, 48 hours
Procedure: The human ileocecal adenocarcinoma epithelial cell line, HCT-8, was used to support C. parvum infection in vitro. HCT-8 cells were maintained in RPMI-1640 (Hyclone) supplemented with 10% FBS, 1 mM sodium pyruvate, 50 U/m penicillin, 50 µg/ml streptomycin, and amphotericin B. Cryptosporidium parvum oocysts were a kind gift from either Dr. Mead (Emory University) or Dr. Kissinger (University of Georgia). HCT-8 cells (2×10^5) were seeded into black, optical quality, thin bottom, 96-well plates (DB Falcon) to achieve a 70% confluent monolayer on the day of infection. To facilitate oocyst excystation, a procedure described by Gut et al., was followed. Briefly, oocysts were washed twice with 1 ml of PBS (pH 7.2), incubated for 10 minutes at 37°C in 1 ml 10 mM of HCl and then incubated for a further 10 minutes in 0.2 ml of 200 µM sodium taurocholate at 15°C [40]. This oocyst suspension was diluted directly with DMEM (Hyclone) supplemented with 2% FBS, 50 U/ml penicillin, 50 µg/ml streptomycin, amphotericin B and 0.2 mM L-glutamine (infection medium) to inoculate host cell monolayers at 5×10^5 oocysts per well. Host cell monolayers were incubated for 3 hours at 37°C prior to removal of unexcysted oocysts by aspiration and PBS wash. Infection medium was then added to the monolayers and infection was allowed to progress for 48 hours.
The VVL IFA was performed in a 96-well format. Following 48 hours of culture C. parvum infected HCT-8 cells were washed with PBS and fixed with 0.2 ml/well of 3% paraformaldehyde/PBS, permeabilized with 0.25% Triton-X-100/PBS and blocked with 4% BSA/PBS. 0.1 ml of fluorescein (FITC)-conjugated VVL (Vector Labs 0.5 µg/ml) in 1% BSA/PBS was applied to wells and incubated for 45 minutes. The plates were washed twice with 200 µl/well of PBS. In the first wash DAPI was included at 0.1 µg/ml. Finally 200 µl/well of PBS was added to the plates prior to storage at 4°C protected from light.
Confocal images were acquired using a BD Biosciences Bioimager P435. The instrument was programmed to automatically change position and focus, capture montage images of 9–16, 40× fields per well, and then compress and save the image files. Object finding algorithms were developed for the recognition of FITC-VVL labelled C. parvum parasites and DAPI labelled host cell nuclei using Attovision Software (BD Biosciences). Briefly, to identify FITC-VVL labelled parasites, the object finding algorithm included, a flat field correction, a polygon shape setting, a 3×3 rolling ball filter, manual pixel intensity thresholding (100 min – 4095 max), and minimum and maximum object size cut-offs of 5 pixels and 350 pixels respectively. The algorithm optimised for finding DAPI labelled host cell nuclei also included flat field correction and polygon shape setting, but applied a 25×25 rolling ball filter which is more suitable for larger objects, an automated pixel intensity threshold, minimum and maximum object size cut-offs of 200 pixels and 4000 pixels respectively, and a watershed step with an erosion factor of 8 to aid in the separation of adjacent densely packed nuclei. Note that the intensity and area size cut off exclude detection of the much smaller parasite nuclei (the human genome is three hundred times larger than the C. parvum genome).
The object finding analysis steps described above recorded the number and area of objects per montage image. The output files along with a plate map file were then passed to an automated analysis pipeline (Pipeline Pilot Software, Accelrys) to calculate the mean number of parasites, the ratio of parasite number to host cell nuclei number, the mean area of parasites and host cell nuclei by well, and the percentage growth by treatment as compared to the no drug control. These analyses were exported in graphical format for each plate and the numerical values tabulated in html format. […]

CpIMPDH [2] = target: T1, CpIMPDH (Cryptosporidium parvum, UniProt Q8T6T2); test: CpIMPDH enzyme inhibition (without or with BSA); assay type: biochemical; conditions: compound not previously described
Procedure: We wondered if some compounds might be binding nonspecifically to other proteins. To test this hypothesis, CpIMPDH inhibition was also evaluated in the presence of BSA [22]. […] Selectivity in the T. gondii model also correlates well with the potency of enzyme inhibition in the presence of BSA (Figure 7C; r = −0.92, p<0.0001). These observations indicate that the IC50 value in the presence of BSA is a useful proxy for antiparasitic activity modelled by T. gondii-CpIMPDH proliferation.

wild-type T. gondii = test: Fluorescent T. gondii growth assay, wild-type strain; assay type: cell-based, Toxoplasma gondii; conditions: wild-type T. gondii, no added xanthine, read-out: T. gondii model EC50 WT
Description: as §1, §2

T. gondii-CpIMPDH = test: Fluorescent T. gondii growth assay, CpIMPDH reporter strain; assay type: cell-based, Toxoplasma gondii; conditions: for EC50: Toxoplasma gondii, read-out: T. gondii model EC50 CpIMPDH, T. gondii-CpIMPDH, absence of xanthine
Description: as §1
To facilitate screening of antiparasitic activity, we constructed a T. gondii reporter parasite that mirrors the Cryptosporidium purine metabolism. Figure 1 summarizes the main differences between the two parasites in this pathway. We started with a T. gondii knockout mutant that, like C. parvum, lacks the ability to salvage xanthine and guanine via HXGPRT (T. gondii-ΔHXGPRT [41]) and introduced the CpIMPDH gene under the control of a T. gondii promoter. Next the native T. gondii IMPDH gene was disrupted by replacing the entire coding sequence with a chloramphenicol acetyl transferase cassette using a new cosmid-based gene targeting approach. […] This manipulation created strain T. gondii-CpIMPDH-ΔHXGPRT-ΔTgIMPDH. Lastly, we introduced a fluorescent protein cassette and isolated stable transgenic parasites by cell sorting. The resulting strain is referred to as T. gondii-CpIMPDH. […] We similarly engineered fluorescent versions of wild-type T. gondii and T. gondii-ΔHXGPRT to serve as controls.
as §2

CpIMPDH [3] = target: T1, CpIMPDH; conditions: read-out: CpIMPDH Inhibition IC50 - BSA; cited from earlier work
C. parvum [4] = conditions: several previous studies; read-out: reported EC50 values for C. parvum growth; cited from earlier work

T1 sequence (Q8T6T2 whole entry): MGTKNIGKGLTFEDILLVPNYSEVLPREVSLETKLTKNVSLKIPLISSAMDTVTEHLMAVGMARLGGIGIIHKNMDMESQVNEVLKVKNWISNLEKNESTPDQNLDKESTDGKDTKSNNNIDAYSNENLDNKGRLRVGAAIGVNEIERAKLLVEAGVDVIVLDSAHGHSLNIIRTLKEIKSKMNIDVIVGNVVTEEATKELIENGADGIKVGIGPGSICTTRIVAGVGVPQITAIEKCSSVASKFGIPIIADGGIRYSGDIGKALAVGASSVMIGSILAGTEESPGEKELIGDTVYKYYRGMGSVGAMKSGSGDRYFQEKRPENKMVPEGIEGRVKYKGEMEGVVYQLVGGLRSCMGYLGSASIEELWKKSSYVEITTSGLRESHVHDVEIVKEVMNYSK

SMILES	EC50 (T. gondii-ΔHXGPRT)	activity at 25 µM (HCT-8 cells)	EC50 (C. parvum [1])	IC50 (CpIMPDH [2]; in the presence of BSA)	IC50 (CpIMPDH [2]; without BSA)	EC50 (wild-type T. gondii; Toxoplasma gondii)	selectivity for the T. gondii-CpIMPDH parasite over wild-type T. gondii (T. gondii-CpIMPDH)	Selectivity = EC50(T. gondii-wild-type)/EC50(T. gondii-CpIMPDH) (T. gondii-CpIMPDH; Figure 5 Sel)	EC50 (T. gondii-CpIMPDH)	inhibition of HCT-8 cell growth (HCT-8 cells; at 12.5 µM and 25 µM)	EC50 (wild-type T. gondii)	IC50 (CpIMPDH [3])	effect on host cell (HCT-8) growth (HCT-8 cells; in words)	mean parasite area (C. parvum [1]; relative to DMSO alone)	parasites observed relative to the no drug control (C. parvum [1]; very high concentrations of paromomycin)	EC50 (C. parvum [4])
CC(Oc1cccc2ncccc12)c1cn(-c2ccc(Cl)cc2)nn1 (centres unmarked) [Compound A99]	3.4 µM	58 ± 8%	12 to 25 µM	0.076 ± 0.009 µM	0.031 ± 0.001 µM	4.7 µM	≥ 17 fold	> 17	< 0.2 µM							
CC(Oc1cc[n+]([O-])c2ccccc12)c1cn(-c2ccc(Cl)cc2)nn1 (centres unmarked) [Compound A100]	≥ 25 µM	44 ± 10%	12 to 25 µM			> 25 µM	≥ 36 fold		0.5 µM	inhibit HCT-8 cell growth significantly	≥ 20 µM	0.03 ± 0.01 µM				
NC[C@@H]1O[C@H](O[C@H]2[C@@H](O)[C@H](O[C@@H]3[C@@H](O)[C@H](N)C[C@H](N)[C@H]3O[C@H]3O[C@H](CO)[C@@H](O)[C@H](O)[C@H]3N)O[C@@H]2CO)[C@H](N)[C@@H](O)[C@@H]1O [paromomycin, reference compound]			97 µM										negligible effects on the growth of these cells	significantly reduce the mean parasite area in a dose responsive manner	~30%	65 to 130 µM
